Results published in ChEMBL document CHEMBL1201862, “PubChem BioAssay data set” (2004).
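Cells were grown in 96-well plates and exposed to each compound for 48 hours at five concentrations; endpoints were interpolated linearly between bracketing concentrations, or set to the highest concentration if not reached. At the GI50, growth is halved.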 Activity calls are given as the source filed them. Cut-off read from the data, not from the text of the source: active = GI50 up to about 1.1 µM and inactive = higher.

Experiments:
Test in all cases: growth of human tumour cells (NCI), 48 h
DMS-114 = system: DMS-114
NCI-H226 = system: NCI-H226
DU-145 = system: DU-145
EKVX = system: EKVX
MOLT-4 = system: MOLT-4
SK-MEL-28 = system: SK-MEL-28
SK-MEL-2 = system: SK-MEL-2
OVCAR-5 = system: OVCAR-5
A549 = system: A549
SNB-78 = system: SNB-78
HOP-18 = system: HOP-18
K562 = system: K562
T47D = system: T47D
NCI-H460 = system: NCI-H460
TK-10 = system: TK-10
COLO 205 = system: COLO 205
HCT-15 = system: HCT-15
786-0 = system: 786-0
Malme-3M = system: Malme-3M
U-251 = system: U-251
SF-539 = system: SF-539
SF-295 = system: SF-295
UO-31 = system: UO-31
OVCAR-8 = system: OVCAR-8
CAKI-1 = system: CAKI-1
SK-MEL-5 = system: SK-MEL-5
SNB-75 = system: SNB-75
XF498 = system: XF498
HL-60 = system: HL-60
MDA-N = system: MDA-N
OVCAR-3 = system: OVCAR-3
HOP-62 = system: HOP-62
Hs-578T = system: Hs-578T
M19-MEL = system: M19-MEL
OVCAR-4 = system: OVCAR-4
M14 = system: M14
MDA-MB-435 = system: MDA-MB-435
DLD-1 = system: DLD-1
KM12 = system: KM12
SK-OV-3 = system: SK-OV-3
SW-620 = system: SW-620
NCI/ADR-RES = system: NCI/ADR-RES
BT-549 = system: BT-549
MDA-MB-231 = system: MDA-MB-231
ACHN = system: ACHN
SF-268 = system: SF-268
RXF 393 = system: RXF 393
DMS-273 = system: DMS-273
LXFL 529 = system: LXFL 529
SN12C = system: SN12C
HT-29 = system: HT-29
NCI-H23 = system: NCI-H23
HCT-116 = system: HCT-116
UACC-257 = system: UACC-257
RPMI-8226 = system: RPMI-8226
MCF7 = system: MCF7
CCRF-CEM = system: CCRF-CEM
SNB-19 = system: SNB-19
IGROV-1 = system: IGROV-1
HCC 2998 = system: HCC 2998
HOP-92 = system: HOP-92
KM-20L2 = system: KM-20L2
LOX IMVI = system: LOX IMVI
UACC-62 = system: UACC-62
A498 = system: A498
NCI-H522 = system: NCI-H522
SR = system: SR

c1ccc(SCCP(CCP(c2ccccc2)c2ccccc2)c2ccccc2)cc1 (stereo not given)
GI50 (DMS-114): 10.2 µM (inactive) | GI50 (NCI-H226): 23.1 µM (inactive) | GI50 (DU-145): 3.41 µM (inactive) | GI50 (EKVX): 9.02 µM (inactive) | GI50 (MOLT-4): 11.4 µM (inactive) | GI50 (SK-MEL-28): 21.3 µM (inactive) | GI50 (SK-MEL-2): 3.07 µM (inactive) | GI50 (OVCAR-5): 46.6 µM (inactive) | GI50 (A549): 6.17 µM (inactive) | GI50 (SNB-78): 2.22 µM (inactive) | GI50 (HOP-18): 2.16 µM (inactive) | GI50 (K562): 4.21 µM (inactive) | GI50 (T47D): 6.58 µM (inactive) | GI50 (NCI-H460): 2.84 µM (inactive) | GI50 (TK-10): 12.1 µM (inactive) | GI50 (COLO 205): 8.77 µM (inactive) | GI50 (HCT-15): 17.7 µM | GI50 (786-0): 4.57 µM (inactive) | GI50 (Malme-3M): 11.5 µM (inactive) | GI50 (U-251): 1.89 µM (inactive) | GI50 (SF-539): 34.9 µM (inactive) | GI50 (SF-295): 5.46 µM (inactive) | GI50 (UO-31): 7.73 µM (inactive) | GI50 (OVCAR-8): 3.06 µM (inactive) | GI50 (CAKI-1): 7.26 µM (inactive) | GI50 (SK-MEL-5): 14 µM (inactive) | GI50 (SNB-75): 0.948 µM (active) | GI50 (XF498): 2.47 µM (inactive) | GI50 (HL-60): 2.09 µM (inactive) | GI50 (MDA-N): 7.52 µM (inactive) | GI50 (OVCAR-3): 3.88 µM (inactive) | GI50 (HOP-62): 8.2 µM (inactive) | GI50 (Hs-578T): 4.61 µM (inactive) | GI50 (M19-MEL): 10.7 µM (inactive) | GI50 (OVCAR-4): 6.14 µM (inactive) | GI50 (M14): 10.5 µM (inactive) | GI50 (MDA-MB-435): 11.5 µM (inactive) | GI50 (DLD-1): 22 µM (inactive) | GI50 (KM12): 2.1 µM (inactive) | GI50 (SK-OV-3): 6.61 µM (inactive) | GI50 (SW-620): 13.3 µM (inactive) | GI50 (NCI/ADR-RES): 34.4 µM (inactive) | GI50 (BT-549): 6.81 µM (inactive) | GI50 (MDA-MB-231): 6.34 µM (inactive) | GI50 (ACHN): 5.02 µM (inactive) | GI50 (SF-268): > 25.5 µM (inactive) | GI50 (RXF 393): 3.9 µM (inactive) | GI50 (DMS-273): 1.73 µM (inactive) | GI50 (LXFL 529): 3.33 µM (inactive) | GI50 (SN12C): 4.09 µM (inactive) | GI50 (HT-29): 3.47 µM (inactive) | GI50 (NCI-H23): 2.95 µM (inactive) | GI50 (HCT-116): 1.89 µM (inactive) | GI50 (UACC-257): 11.7 µM (inactive) | GI50 (RPMI-8226): 3.14 µM (inactive) | GI50 (MCF7): 14.1 µM (inactive) | GI50 (CCRF-CEM): 8.3 µM (inactive) | GI50 (SNB-19): 2.95 µM (inactive) | GI50 (IGROV-1): 6.34 µM (inactive) | GI50 (HCC 2998): 12.2 µM (inactive) | GI50 (HOP-92): 2.29 µM (inactive)

O=C(Cc1nc2ccccc2s1)C(=O)Nc1ccccc1C(F)(F)F
GI50 (DMS-114): > 100 µM (inactive) | GI50 (NCI-H226): > 100 µM (inactive) | GI50 (EKVX): > 100 µM (inactive) | GI50 (MOLT-4): > 100 µM (inactive) | GI50 (SK-MEL-28): > 100 µM (inactive) | GI50 (KM-20L2): > 100 µM (inactive) | GI50 (SK-MEL-2): > 100 µM (inactive) | GI50 (OVCAR-5): > 100 µM (inactive) | GI50 (A549): > 100 µM (inactive) | GI50 (SNB-78): > 100 µM (inactive) | GI50 (HOP-18): > 100 µM (inactive) | GI50 (K562): > 100 µM (inactive) | GI50 (NCI-H460): > 100 µM (inactive) | GI50 (LOX IMVI): > 100 µM (inactive) | GI50 (UACC-62): > 100 µM (inactive) | GI50 (TK-10): > 100 µM (inactive) | GI50 (COLO 205): > 100 µM (inactive) | GI50 (HCT-15): > 100 µM | GI50 (786-0): > 100 µM (inactive) | GI50 (Malme-3M): > 100 µM (inactive) | GI50 (A498): > 100 µM (inactive) | GI50 (U-251): > 100 µM (inactive) | GI50 (SF-539): > 100 µM (inactive) | GI50 (SF-295): > 100 µM (inactive) | GI50 (UO-31): > 100 µM (inactive) | GI50 (OVCAR-8): > 100 µM (inactive) | GI50 (CAKI-1): > 100 µM (inactive) | GI50 (SK-MEL-5): > 100 µM (inactive) | GI50 (SNB-75): 25.1 µM (inactive) | GI50 (NCI-H522): > 100 µM (inactive) | GI50 (XF498): > 100 µM (inactive) | GI50 (HL-60): > 100 µM (inactive) | GI50 (OVCAR-3): > 100 µM (inactive) | GI50 (HOP-62): > 100 µM (inactive) | GI50 (M19-MEL): > 100 µM (inactive) | GI50 (OVCAR-4): > 100 µM (inactive) | GI50 (M14): > 100 µM (inactive) | GI50 (DLD-1): > 100 µM (inactive) | GI50 (KM12): > 100 µM (inactive) | GI50 (SK-OV-3): > 100 µM (inactive) | GI50 (SW-620): > 100 µM (inactive) | GI50 (ACHN): > 100 µM (inactive) | GI50 (SF-268): > 100 µM (inactive) | GI50 (RXF 393): > 100 µM (inactive) | GI50 (DMS-273): > 100 µM (inactive) | GI50 (LXFL 529): > 100 µM (inactive) | GI50 (SN12C): > 100 µM (inactive) | GI50 (HT-29): > 100 µM (inactive) | GI50 (NCI-H23): > 100 µM (inactive) | GI50 (HCT-116): > 100 µM (inactive) | GI50 (UACC-257): > 100 µM (inactive) | GI50 (CCRF-CEM): > 100 µM (inactive) | GI50 (SNB-19): > 100 µM (inactive) | GI50 (IGROV-1): > 100 µM (inactive) | GI50 (HCC 2998): > 100 µM (inactive) | GI50 (HOP-92): 20.4 µM (inactive)

CN(C)CCC(=O)c1ccccc1
GI50 (DMS-114): > 39.1 µM (inactive) | GI50 (NCI-H226): > 58.7 µM (inactive) | GI50 (EKVX): > 55.6 µM (inactive) | GI50 (MOLT-4): 21.5 µM (inactive) | GI50 (SK-MEL-28): 41 µM (inactive) | GI50 (KM-20L2): > 43.8 µM (inactive) | GI50 (SK-MEL-2): > 62.8 µM (inactive) | GI50 (OVCAR-5): > 43.7 µM (inactive) | GI50 (A549): > 65.2 µM (inactive) | GI50 (SNB-78): 38.2 µM (inactive) | GI50 (HOP-18): > 56.4 µM (inactive) | GI50 (K562): 27.6 µM (inactive) | GI50 (NCI-H460): > 58.5 µM (inactive) | GI50 (LOX IMVI): 36.4 µM (inactive) | GI50 (UACC-62): > 56.2 µM (inactive) | GI50 (TK-10): > 56.5 µM (inactive) | GI50 (COLO 205): 28.9 µM (inactive) | GI50 (HCT-15): 24.1 µM | GI50 (786-0): 20 µM (inactive) | GI50 (Malme-3M): 16.1 µM (inactive) | GI50 (A498): > 71.6 µM (inactive) | GI50 (U-251): > 56.2 µM (inactive) | GI50 (SF-539): > 58.1 µM (inactive) | GI50 (SF-295): > 100 µM (inactive) | GI50 (UO-31): > 56.9 µM (inactive) | GI50 (OVCAR-8): 36.6 µM (inactive) | GI50 (CAKI-1): 18.9 µM (inactive) | GI50 (SK-MEL-5): > 43 µM (inactive) | GI50 (SNB-75): > 59.4 µM (inactive) | GI50 (NCI-H522): 0.693 µM (active) | GI50 (XF498): 19.4 µM (inactive) | GI50 (HL-60): 11.3 µM (inactive) | GI50 (OVCAR-3): 42.7 µM (inactive) | GI50 (HOP-62): > 100 µM (inactive) | GI50 (M19-MEL): 33.2 µM (inactive) | GI50 (OVCAR-4): 46.7 µM (inactive) | GI50 (M14): 32.4 µM (inactive) | GI50 (DLD-1): 19.8 µM (inactive) | GI50 (KM12): 32.5 µM (inactive) | GI50 (SK-OV-3): > 57.1 µM (inactive) | GI50 (SW-620): 16.8 µM (inactive) | GI50 (ACHN): > 57.5 µM (inactive) | GI50 (SF-268): > 58.5 µM (inactive) | GI50 (RXF 393): 38.3 µM (inactive) | GI50 (SR): 35.1 µM (inactive) | GI50 (DMS-273): > 58.2 µM (inactive) | GI50 (LXFL 529): 26.3 µM (inactive) | GI50 (SN12C): > 58.6 µM (inactive) | GI50 (HT-29): > 47.8 µM (inactive) | GI50 (NCI-H23): > 61.8 µM (inactive) | GI50 (HCT-116): 28.4 µM (inactive) | GI50 (UACC-257): 37.8 µM (inactive) | GI50 (RPMI-8226): 9.04 µM (inactive) | GI50 (CCRF-CEM): 23.4 µM (inactive) | GI50 (SNB-19): > 100 µM (inactive) | GI50 (IGROV-1): > 58.5 µM (inactive) | GI50 (HCC 2998): > 58.1 µM (inactive) | GI50 (HOP-92): 24.5 µM (inactive)
